Measurements: US20220235073A1, “ARTEMISININ-DERIVATIVE N-HETEROCYCLIC CARBENE GOLD(I) HYBRID COMPLEXES” (CENTRE NATIONAL DE LA RECHERCHE SCIENTIFIQUE, priority 2019, published 2022)

Assays:
[1] = test system: NIH3T3 murine fibroblast cells; test: Cell viability MTT assay, NIH3T3; format: cell-based; conditions: for GI50: 72 h, MTT assay; for Selectivity index NIH3T3: SI = GI50 (non-cancer cell line NIH3T3)/GI50 (cancer cell line PC-3)
Method: (§1) HepG-2 human liver cancer cells were cultured in EMEM containing 10% of FBS, 1% of nonessential amino acids, 1 mM of Na-pyruvate, 1% of PenStrep antibiotics and 600 μg/mL of Geneticin. A549 human lung carcinoma cells, T24 human bladder carcinoma cells, MCF-7 human breast adenocarcinoma cells, U-2OS human osteosarcoma and NIH3T3 murine fibroblast cells were cultured in DMEM medium containing 10% fetal bovine serum and 1% antibiotics at 37° C. in 5% CO2 humidified incubators. MC3T3 mouse osteoblast cells were cultured in MEM medium containing 10% fetal bovine serum and 1% antibiotics at 37° C. in 5% CO2 humidified incubators. RWPE-1 human prostate normal cells were cultured in K-SFM medium containing 0.05 mg/ml bovine pituitary extract (BPE) and 5 ng/ml epidermal growth factor (EGF) at 37° C. in 5% CO2 humidified incubators. The MTT reagent (3-(4,5-dimethylthiazol-2-yl)-2,5-diphenyltetrazolium bromide) was used to determine cell death as originally described by Mosmaneland modified by Cuvillier et al.^[6] Briefly, cells were seeded 5,000 to 10,000 cells/well in 24-well plates depending on the cell type and allowed to attach overnight. All of the complexes were dissolved in DMSO. The concentration of the complexes was calculated according to the elemental composition of the complexes determined by the elemental analyses. Media in the presence of the tested complexes were added and serially diluted to various concentrations (from 5 μM to 0.01 μM). Next to these concentrations, for DHA 50, 20 and 10 μM and for the cationic bisNHC gold(I) complex 3 0.001 μM have been used. […] After 72 h of treatment, cells were incubated at 37° C. and 5% CO2 with 25 μL MTT solution (5 mg/mL; Sigma-Aldrich) in 24-well plates for approximately 3 to 4 h. After solubilization with 500 μL of lysis buffer (DMSO), formazan was quantified by spectrophotometry with a microplate reader at 570 nm absorbance. […] All the results were calculated from data obtained in three independent experiments.

[2] = test system: RWPE-1 human prostate normal cells; test: Cell viability MTT assay, RWPE-1; format: cell-based; conditions: for GI50: 72 h, MTT assay; for Selectivity index RWPE-1: SI = GI50 (RWPE-1)/GI50 (PC-3)
Method: as §1

[3] = test system: PC-3 human prostate cancer cells; test: Cell viability MTT assay, PC-3; format: cell-based; conditions: for GI50: 72 h, MTT assay
[4] = test system: A549 human lung carcinoma cells; test: Cell viability MTT assay, A549; format: cell-based
Method: (§2) PC-3 human prostate cancer cells, and LAMA chronic myeloid leukemia were cultured in RPMI 1640 containing 10% fetal bovine serum and 1% antibiotics (100 U/mL penicillin and 100 μg/mL streotimycin) at 37° C. in 5% CO2 humidified incubators. HL60 […] were cultured in RPMI 1640 containing 15% fetal bovine serum and 1% antibiotics (100 U/mL penicillin and 100 μg/mL streotimycin) at 37° C. in 5% CO2 humidified incubators. HepG-2 human liver cancer cells were cultured in EMEM containing 10% of FBS, 1% of nonessential amino acids, 1 mM of Na-pyruvate, 1% of PenStrep antibiotics and 600 μg/mL of Geneticin. A549 human lung carcinoma cells, T24 human bladder carcinoma cells, MCF-7 human breast adenocarcinoma cells, U-2OS human osteosarcoma and NIH3T3 murine fibroblast cells were cultured in DMEM medium containing 10% fetal bovine serum and 1% antibiotics at 37° C. in 5% CO2 humidified incubators. MC3T3 mouse osteoblast cells were cultured in MEM medium containing 10% fetal bovine serum and 1% antibiotics at 37° C. in 5% CO2 humidified incubators. RWPE-1 human prostate normal cells were cultured in K-SFM medium containing 0.05 mg/ml bovine pituitary extract (BPE) and 5 ng/ml epidermal growth factor (EGF) at 37° C. in 5% CO2 humidified incubators. The MTT reagent (3-(4,5-dimethylthiazol-2-yl)-2,5-diphenyltetrazolium bromide) was used to determine cell death as originally described by Mosmaneland modified by Cuvillier et al.^[6] Briefly, cells were seeded 5,000 to 10,000 cells/well in 24-well plates depending on the cell type and allowed to attach overnight. All of the complexes were dissolved in DMSO. The concentration of the complexes was calculated according to the elemental composition of the complexes determined by the elemental analyses. Media in the presence of the tested complexes were added and serially diluted to various concentrations (from 5 μM to 0.01 μM). Next to these concentrations, for DHA 50, 20 and 10 μM and for the cationic bisNHC gold(I) complex 3 0.001 μM have been used. […] After 72 h of treatment, cells were incubated at 37° C. and 5% CO2 with 25 μL MTT solution (5 mg/mL; Sigma-Aldrich) in 24-well plates for approximately 3 to 4 h. After solubilization with 500 μL of lysis buffer (DMSO), formazan was quantified by spectrophotometry with a microplate reader at 570 nm absorbance. The GI50 values corresponding to the concentration that caused 50% inhibition of cell proliferation were calculated from dose-response curves obtained by nonlinear regression analysis (Prism 8, Graphpad Software). All the results were calculated from data obtained in three independent experiments.

[5] = test system: MC3T3 mouse osteoblast cells; test: Cell viability MTT assay, MC3T3; format: cell-based
Method: as §2

[6] = test system: Non tumoral cell models (MC3-T3, NIH3T3, RWPE1); test: MTT assay, mean over non tumoral cell models; format: cell-based; conditions: mean of MC3-T3, NIH3T3, RWPE1
Method: (§3) PC-3 human prostate cancer cells, and LAMA chronic myeloid leukemia were cultured in RPMI 1640 containing 10% fetal bovine serum and 1% antibiotics (100 U/mL penicillin and 100 μg/mL streotimycin) at 37° C. in 5% CO2 humidified incubators. HL60 […] were cultured in RPMI 1640 containing 15% fetal bovine serum and 1% antibiotics (100 U/mL penicillin and 100 μg/mL streotimycin) at 37° C. in 5% CO2 humidified incubators. HepG-2 human liver cancer cells were cultured in EMEM containing 10% of FBS, 1% of nonessential amino acids, 1 mM of Na-pyruvate, 1% of PenStrep antibiotics and 600 μg/mL of Geneticin. A549 human lung carcinoma cells, T24 human bladder carcinoma cells, MCF-7 human breast adenocarcinoma cells, U-2OS human osteosarcoma and NIH3T3 murine fibroblast cells were cultured in DMEM medium containing 10% fetal bovine serum and 1% antibiotics at 37° C. in 5% CO2 humidified incubators. MC3T3 mouse osteoblast cells were cultured in MEM medium containing 10% fetal bovine serum and 1% antibiotics at 37° C. in 5% CO2 humidified incubators. RWPE-1 human prostate normal cells were cultured in K-SFM medium containing 0.05 mg/ml bovine pituitary extract (BPE) and 5 ng/ml epidermal growth factor (EGF) at 37° C. in 5% CO2 humidified incubators. The MTT reagent (3-(4,5-dimethylthiazol-2-yl)-2,5-diphenyltetrazolium bromide) was used to determine cell death as originally described by Mosmaneland modified by Cuvillier et al.^[6] Briefly, cells were seeded 5,000 to 10,000 cells/well in 24-well plates depending on the cell type and allowed to attach overnight. All of the complexes were dissolved in DMSO. The concentration of the complexes was calculated according to the elemental composition of the complexes determined by the elemental analyses. […] After solubilization with 500 μL of lysis buffer (DMSO), formazan was quantified by spectrophotometry with a microplate reader at 570 nm absorbance. […] All the results were calculated from data obtained in three independent experiments.

[7] = test system: T24 human bladder carcinoma cells; test: Cell viability MTT assay, T24; format: cell-based
Method: as §2

Tumor cell models = test: MTT assay, panel of tumor cell models; format: cell-based, human; conditions: mean of PC-3, A549, U2OS, T24, MCF-7, LAMA, HL60
Method: as §3

U-2OS human osteosarcoma = test: Cell viability MTT assay, U-2OS; format: cell-based
Method: as §2

[8] = test system: HL60 (acute myeloid leukemia); test: Cell viability MTT assay, HL60; format: cell-based
Method: as §2

[9] = test system: NF-κB transcription factor induced by TNFalpha; test: NF-kB transcriptional activity, NF-kB Reporter (Luc)-A549 stable cell line; format: cell-based, human; conditions: NF-kB Reporter A549 cells, 1 ng/ml TNFα, 7 hours; read-out: IC50, inhibition of NF-κB transcription factor induced by TNFalpha
Method: The NF-kB Reporter (Luc)—A549 Stable Cell Line was used to quantify the inhibitory effects of the indicated doses of the molecules of the invention on transcriptional activity of NF-kB activated by 1 ng/ml TNFα (7 hours of treatment).
Luminescence was read using a luminometer and readings were normalized to wells that only contain media to obtain the Relative Luminescence Units (RLUs).
9. NF-kB Transcriptional Activity

[10] = test system: LAMA chronic myeloid leukemia; test: Cell viability MTT assay, LAMA; format: cell-based, human
Method: as §2

[11] = test system: MCF-7 human breast adenocarcinoma cells; test: Cell viability MTT assay, MCF-7; format: cell-based
Method: as §2

[12] = test system: HepG-2 human liver cancer cells; test: Cell viability MTT assay, HepG-2; format: cell-based; conditions: 72 h
Method: as §3

Nrf2 = test: NRF2 transcriptional activity, ARE Reporter Hep G2 cell line; format: cell-based, human; conditions: ARE Reporter Hep G2 cells, 16 hours, any dose
Method: The ARE Reporter Hep G2 cell line containing a firefly luciferase gene under the control of ARE stably integrated into Hep G2 cells was used to quantify NRF2 transcriptional activity after 16 hours of treatment with the indicated doses of the different complexes. The results are shown as fold induction of ARE luciferase reporter expression. Dashed line indicates a fold induction of 1 (values >1 mean activation and values <1 mean inhibition).
ARE-reporter-HepG-2 cells were harvested from culture in Growth Medium 1K and they were seeded at a concentration of 40,000 cells/well into white clear-bottom 96-well microplate in 45 μL of Growth Medium 1K without Geneticin. Cells were allowed to attach overnight and then treated with different concentrations of complex 2a (from 0.01 μM to 20 μM), auranofin (from 0.01 μM to 20 μM) or DHA (from 0.01 μM to 3, 5, 10, 20 and 50 μM), and complex (from 0.01 μM to 20 μM). After incubation at 37° C. and 5% CO2 for 16 hours, ONE-Step luciferase assay reagent (100 μL) was added and rock at room temperature for over 15 minutes. Then the luminescence of each well was determined by CLARIOstar microplate reader to quantify induction of ARE. Three independent experiments were performed as biological triplicates. The results are in FIG. 4.

[13] = ratio of IC50, tumoral versus non tumoral cells of same tissue

Compound: 3′-methyl-1′-[10β-(20-propoxy)dihydroartemisin]1H-imidazol-3-ium bromide [Compound 1a]
- GI50 [1]: > 20000 nM
- GI50 [2]: > 20000 nM
- GI50 [3]: > 20000 nM

Compound: 3′-methyl-1′-[10β-(21-butoxy)dihydroartemisin]1H-imidazol-3-ium bromide [Compound 1b]
- GI50 [1]: > 20000 nM
- GI50 [2]: > 20000 nM
- GI50 [3]: > 20000 nM

Compound: 3′-methyl-1′-[10β-(22-pentoxy)dihydroartemisin]1H-imidazol-3-ium bromide [Compound 1c]
- GI50 [1]: > 20000 nM
- GI50 [2]: 3740 nM
- GI50 [3]: > 20000 nM

Compound: C[C@@H]1CCC2[C@@H](C)[C@@H](OCCCn3cc[n+](C)[c]3[Au-][c]3n(CCCO[C@H]4O[C@@H]5O[C@]6(C)CCC7[C@H](C)CCC([C@H]4C)[C@]75OO6)cc[n+]3C)O[C@@H]3O[C@]4(C)CCC1[C@@]23OO4.O=[N+]([O-])[O-] (some centres unmarked) [Compound 2a]
- GI50 ([4]; 72 h, MTT assay): 110 nM
- IC50 ([4]; Table 3, tumor cell model): 115 nM
- GI50 ([5]; 72 h, MTT assay): 1620 nM
- Selectivity index MC3T3 ([5]; SI = GI50 (MC3T3)/GI50 (PC-3)): 23.1
- IC50 ([5]; Table 3, non tumoral cell model, read-out: IC50 MC3-T3 (osteoblasts)): 1620 nM
- Specificity Bone: MC3-T3 (normal immortalized)/U2OS (tumoral) [5, 13]: 13.3
- GI50 [1]: 1130 nM
- Selectivity index NIH3T3 [1]: 16.1
- IC50 ([1]; Table 3, non tumoral cell model, read-out: IC50 NIH3T3 (fibroblasts)): 1130 nM
- IC50 [6]: 1080 nM
- GI50 ([7]; 72 h, MTT assay): 170 nM
- IC50 ([7]; Table 3, tumor cell model): 175 nM
- IC50 (Tumor cell models): 96 nM
- GI50 (U-2OS human osteosarcoma; 72 h, MTT assay, read-out: GI50 U2OS): 120 nM
- IC50 (U-2OS human osteosarcoma; Table 3, tumor cell model, read-out: IC50 U2OS (bone tumor)): 122 nM
- GI50 ([8]; 72 h, MTT assay): 22 nM
- IC50 ([8]; Table 3, tumor cell model): 22 nM
- GI50 [2]: 480 nM
- Selectivity index RWPE-1 [2]: 6.9
- IC50 ([2]; Table 3, non tumoral cell model, read-out: IC50 RWPE1 (prostatic epithelial cells)): 480 nM
- Specificity Prostate: RWPE1 (normal immortalized)/PC-3 (tumoral) [2, 13]: 6.9
- SI PC-3/RPWE-1 value, times higher than Auranofin ([2]; ratio of SI): 69 times
- SI PC-3/RPWE-1 value, times higher than complex 3 ([2]; ratio of SI): 35 times
- GI50 [3]: 70 nM
- IC50 ([3]; Table 3, tumor cell model): 70 nM
- IC50 [9]: ~615 nM
- GI50 ([10]; 72 h, MTT assay): 80 nM
- IC50 ([10]; Table 3, tumor cell model): 79 nM
- GI50 ([11]; 72 h, MTT assay): 90 nM
- IC50 ([11]; Table 3, tumor cell model): 89 nM
- GI50 [12]: 2430 nM

Compound: C[C@@H]1CCC2[C@@H](C)[C@@H](OCCCCn3cc[n+](C)[c]3[Au-][c]3n(CCCCO[C@H]4O[C@@H]5O[C@]6(C)CCC7[C@H](C)CCC([C@H]4C)[C@]75OO6)cc[n+]3C)O[C@@H]3O[C@]4(C)CCC1[C@@]23OO4.[Cl-] (some centres unmarked) [Compound 2b]
- GI50 [1]: 700 nM
- Selectivity index NIH3T3 [1]: 16.7
- GI50 [2]: 110 nM
- Selectivity index RWPE-1 [2]: 2.6
- GI50 [3]: 42 nM

Compound: CN1C=CN(c2ccc3ccccc3n2)[CH]1[Au-][CH]1N(C)C=CN1c1ccc2ccccc2n1 (centres unmarked) [Compound 3]
- Effect on activity of Nrf2 (Nrf2): activate

Compound: C[C@@H]1CC[C@H]2[C@@H](C)C(=O)O[C@@H]3O[C@@]4(C)CC[C@@H]1[C@]32OO4 [artemisinin]
- Effect on activity of Nrf2 (Nrf2): activate
